# Test results published in US9040527B2, “Pyrimidinediamine kinase inhibitors” (Rigel Pharmaceuticals, Inc., priority 2008, dated 2015).
# Columns and labels:
# [1] = target: T1, PLK1 (Homo sapiens, UniProt P53350); experiment: In vitro PLK1 ELISA assay (biochemical); set-up: purchased Cell Signalling 7728
# Procedure, shortened: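 Commercial PLK1 phosphorylates neutravidin-captured biotinylated CHK2 peptide for 45 min at room temperature in HEPES pH 7.2 with Mg2+/Mn2+/DTT, compounds at 10 μM to 0.005 μM. Phospho-CHK2(T68) antibody plus HRP secondary gives chemiluminescent read-out used for IC50.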
# [2] = target: T1, PLK1; experiment: Cellular PLK1 assay in K562 cells overexpressing CDC25C; format: cell-based; set-up: endogenous in cells; host or cells: K562 (human chronic myelogenous leukemia) overexpressing CDC25C, nocodazole-arrested; conditions: nocodazole arrested, cdc25c p-Ser198 readout
# Procedure, shortened: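 K562 cells overexpressing CDC25C were arrested with 333 nM nocodazole for 18 h at 37 °C, then exposed to compound at 8 points from 10 μM to 0.005 μM in duplicate for 120 min. After fixation and permeabilization, cells were stained for cdc25c pSer198 with a PE secondary and read by flow cytometry, 10,000 cells per well.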
# [3] = ELISA, CHK2-derived peptide substrate, read-out: PLK1 IC50 (μM) biochemical assay
# [4] = read-out: IC50 in biochemical in vitro PLK1 ELISA assay (less than 10 μM)
# [5] = read-out: IC50 in biochemical ELISA assay (less than 0.01 μM)
# T1 sequence (P53350 whole entry): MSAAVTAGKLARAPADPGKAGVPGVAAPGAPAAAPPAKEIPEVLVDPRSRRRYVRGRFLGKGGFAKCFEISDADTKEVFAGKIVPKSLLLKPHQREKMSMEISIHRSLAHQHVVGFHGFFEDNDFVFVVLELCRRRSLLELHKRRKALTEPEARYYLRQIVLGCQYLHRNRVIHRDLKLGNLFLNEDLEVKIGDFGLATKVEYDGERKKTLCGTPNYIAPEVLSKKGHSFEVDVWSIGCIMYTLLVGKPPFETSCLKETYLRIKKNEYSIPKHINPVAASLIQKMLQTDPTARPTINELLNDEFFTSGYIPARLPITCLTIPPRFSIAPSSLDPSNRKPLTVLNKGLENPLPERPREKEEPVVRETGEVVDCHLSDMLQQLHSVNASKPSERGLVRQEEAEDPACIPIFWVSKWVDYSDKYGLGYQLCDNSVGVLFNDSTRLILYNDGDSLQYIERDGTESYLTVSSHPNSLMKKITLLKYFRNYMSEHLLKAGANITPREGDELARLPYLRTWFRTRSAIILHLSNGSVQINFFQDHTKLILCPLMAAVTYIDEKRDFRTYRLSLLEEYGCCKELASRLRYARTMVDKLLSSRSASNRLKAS
Compound,"IC50 [1, 3] [µM]",IC50 [2] [µM],"IC50 [1, 4] [µM]","IC50 [1, 5] [µM]"
"CCCN1C(=O)COc2ccc(Nc3nc(Nc4ccc(N5CCNCC5)c(C(F)(F)F)c4)ncc3F)nc21 [compound 138, 6-(5-fluoro-2-(4-(piperazin-1-yl)-3-(trifluoromethyl)phenyl-amino)pyrimidin-4-ylamino)-4-propyl-2H-pyrido[3,2-b][1,4]oxazin-3(4H)-one]",≥ 10,≥ 10,–,–
"Cc1cc(Nc2ncc(C)c(Nc3ccc4c(n3)NC(=O)C(C)(C)O4)n2)ccc1N1CCN(C)CC1 [compound 96, 2,2-dimethyl-6-(5-methyl-2-(3-methyl-4-(4-methylpiperazin-1-yl)phenylamino)pyrimidin-4-ylamino)-2H-pyrido[3,2-b][1,4]oxazin-3(4H)-one]",5 to 10,≥ 10,< 10,–
"CN1CCN(c2cccc(Nc3ncc(C(F)(F)F)c(Nc4ccc5c(n4)NCCO5)n3)c2)CC1 [compound 55, N4-(3,4-dihydro-2H-pyrido[3,2-b][1,4]oxazin-6-yl)-N2-(3-(4-methyl-piperazin-1-yl)phenyl)-5-(trifluoro-methyl)pyrimidine-2,4-diamine]",< 0.5,< 0.5,< 10,< 0.01
"CN1CCN(c2cc(Nc3ncc(F)c(Nc4ccc5c(n4)NC(=O)CO5)n3)cc(C(F)(F)F)c2)CC1 [compound 29, 6-(5-fluoro-2-(3-(4-methylpiperazin-1-yl)-5-(trifluoromethyl)phenyl-amino)pyrimidin-4-ylamino)-2H-pyrido[3,2-b][1,4]oxazin-3(4H)-one]",< 0.5,≥ 10,< 10,–
"Cc1cc(Nc2ncc(C)c(Nc3ccc4c(n3)N(C)C(=O)CO4)n2)ccc1N1CCN(C)CC1 [compound 95, 4-methyl-6-(5-methyl-2-(3-methyl-4-(4-methylpiperazin-1-yl)phenylamino)pyrimidin-4-ylamino)-2H-pyrido[3,2-b][1,4]oxazin-3(4H)-one]",0.5 to 5,≥ 10,< 10,–
"C#CCN1C(=O)COc2ccc(Nc3nc(Nc4cccc(N5CCN(C)CC5)c4)ncc3C)nc21 [compound 127, 6-(5-methyl-2-(3-(4-methylpiperazin-1-yl)phenylamino)pyrimidin-4-ylamino)-4-(prop-2-ynyl)-2H-pyrido[3,2-b][1,4]oxazin-3(4H)-one]",< 0.5,< 0.5,< 10,< 0.01
"CCOc1ccc(N2CCN(C)CC2)cc1Nc1ncc(F)c(Nc2ccc3c(n2)NCCO3)n1 [compound 45, N4-(3,4-dihydro-2H-pyrido[3,2-b][1,4]oxazin-6-yl)-N2-(2-ethoxy-5-(4-methylpiperazin-1-yl)phenyl)-5-fluoro-pyrimidine-2,4-diamine]",< 0.5,< 0.5,< 10,–
"COc1ccc(CN2C(=O)COc3ccc(Nc4nc(Nc5cccc(N6CCN(C)CC6)c5)ncc4F)nc32)cc1 [compound 123, 6-(5-fluoro-2-(3-(4-methylpiperazin-1-yl)phenylamino)pyrimidin-4-ylamino)-4-(4-methoxybenzyl)-2H-pyrido[3,2-b][1,4]oxazin-3(4H)-one]",≥ 10,≥ 10,–,–
"CN1CCN(c2cc(Nc3ncc(F)c(Nc4ccc5c(n4)NC(=O)CO5)n3)cc(C3CC3)c2)CC1 [compound 50, 6-(2-(3-cyclopropyl-5-(4-methylpiperazin-1-yl)phenylamino)-5-fluoro-pyrimidin-4-ylamino)-2H-pyrido[3,2-b][1,4]oxazin-3(4H)-one]",< 0.5,< 0.5,< 10,< 0.01
"COc1ccc(CN2C(=O)COc3ccc(Nc4nc(Nc5ccc(N6CCN(C)CC6)c(C)c5)ncc4F)nc32)cc1 [compound 124, 6-(5-fluoro-2-(3-methyl-4-(4-methylpiperazin-1-yl)phenylamino)pyrimidin-4-ylamino)-4-(4-methoxybenzyl)-2H-pyrido[3,2-b][1,4]oxazin-3(4H)-one]",≥ 10,≥ 10,–,–
"CCCN1C(=O)COc2ccc(Nc3nc(Nc4ccc(N5CC6CC5CN6S(C)(=O)=O)c(C)c4)ncc3C)nc21 (stereo not shown) [compound 32, 6-(5-methyl-2-(3-methyl-4-(5-(methylsulfonyl)-2,5-diazabicyclo[2.2.1]heptan-2-yl)phenylamino)pyrimidin-4-ylamino)-4-propyl-2H-pyrido[3,2-b][1,4]oxazin-3(4H)-one]",0.5 to 5,0.5 to 5,< 10,–
"CN1CCN(c2cccc(Nc3ncc(F)c(Nc4ccc5c(c4)NC(=O)CO5)n3)c2)CC1 [compound 17, 6-(5-fluoro-2-(3-(4-methylpiperazin-1-yl)phenylamino)pyrimidin-4-ylamino)-2H-benzo[b][1,4]oxazin-3(4H)-one]",< 0.5,0.5 to 5,< 10,< 0.01
"Cc1cc(Nc2ncc(C)c(Nc3ccc4c(n3)N(C3CCCC3)C(=O)CO4)n2)ccc1N1CCN(C)CC1 [compound 117, 4-cyclopentyl-6-(5-methyl-2-(3-methyl-4-(4-methylpiperazin-1-yl)phenylamino)pyrimidin-4-ylamino)-2H-pyrido[3,2-b][1,4]oxazin-3(4H)-one]",≥ 10,≥ 10,–,–
"CN1CCN(c2cccc(Nc3ncc(F)c(Nc4ccc5c(n4)NC(=O)C(C)(C)O5)n3)c2)CC1 [compound 161, 6-(5-fluoro-2-(3-(4-methylpiperazin-1-yl)phenylamino)pyrimidin-4-ylamino)-2,2-dimethyl-2H-pyrido[3,2-b][1,4]oxazin-3(4H)-one]",< 0.5,0.5 to 5,< 10,–
"CCN1C(=O)COc2ccc(Nc3nc(Nc4ccc(N5CCN(C)CC5)cc4)ncc3Cl)cc21 [compound 173, 6-(5-chloro-2-(4-(4-methylpiperazin-1-yl)phenylamino)pyrimidin-4-ylamino)-4-ethyl-2H-benzo[b][1,4]oxazin-3(4H)-one]",0.5 to 5,0.5 to 5,< 10,–
"Cc1cnc(Nc2cccc(N3CCN(C)CC3)c2)nc1Nc1ccc2c(n1)NC(=O)CO2 [compound 51, 6-(5-methyl-2-(3-(4-methylpiperazin-1-yl)phenylamino)pyrimidin-4-ylamino)-2H-pyrido[3,2-b][1,4]oxazin-3(4H)-one]",< 0.5,0.5 to 5,< 10,< 0.01
"CCCN1C(=O)COc2ccc(Nc3nc(Nc4ccc(N5CCN(C)CC5)c(C(F)(F)F)c4)ncc3C)nc21 [compound 136, 6-(5-methyl-2-(4-(4-methylpiperazin-1-yl)-3-(trifluoromethyl)phenyl-amino)pyrimidin-4-ylamino)-4-propyl-2H-pyrido[3,2-b][1,4]oxazin-3(4H)-one]",≥ 10,≥ 10,–,–
"CN1CCN(c2cccc(Nc3ncc(F)c(Nc4ccc5c(n4)N(C4CCCC4)C(=O)CO5)n3)c2)CC1 [compound 131, 4-cyclopentyl-6-(5-fluoro-2-(3-(4-methylpiperazin-1-yl)phenylamino)pyrimidin-4-ylamino)-2H-pyrido[3,2-b][1,4]oxazin-3(4H)-one]",0.5 to 5,≥ 10,< 10,–
"Cc1cnc(Nc2cccc(N3CCN(C)CC3)c2)nc1Nc1ccc2c(n1)N(C1CCCC1)C(=O)CO2 [compound 116, 4-cyclopentyl-6-(5-methyl-2-(3-(4-methylpiperazin-1-yl)phenylamino)pyrimidin-4-ylamino)-2H-pyrido[3,2-b][1,4]oxazin-3(4H)-one]",0.5 to 5,≥ 10,< 10,–
"CC(C)Oc1ccc(N2CCN(C)CC2)cc1Nc1ncc(F)c(Nc2ccc3c(n2)NCCO3)n1 [compound 23, N4-(3,4-dihydro-2H-pyrido[3,2-b][1,4]oxazin-6-yl)-5-fluoro-N2-(2-isopropoxy-5-(4-methylpiperazin-1-yl)phenyl)pyrimidine-2,4-diamine]",< 0.5,0.5 to 5,< 10,–
"CN1CCN(c2cccc(Nc3ncc(F)c(Nc4ccc5c(n4)NCCO5)n3)c2)CC1 [compound 167, N4-(3,4-dihydro-2H-pyrido[3,2-b][1,4]oxazin-6-yl)-5-fluoro-N2-(3-(4-methylpiperazin-1-yl)phenyl)pyrimidine-2,4-diamine]",< 0.5,< 0.5,< 10,–
"CC(C)Oc1cc(Nc2ncc(F)c(Nc3ccc4c(n3)NCCO4)n2)cc(N2CCN(C)CC2)c1 [compound 26, N4-(3,4-dihydro-2H-pyrido[3,2-b][1,4]oxazin-6-yl)-5-fluoro-N2-(3-isopropoxy-5-(4-methylpiperazin-1-yl)phenyl)pyrimidine-2,4-diamine]",< 0.5,< 0.5,< 10,< 0.01
"CN1CCN(c2ccc(C3CC3)c(Nc3ncc(F)c(Nc4ccc5c(n4)NCCO5)n3)c2)CC1 [compound 34, N2-(2-cyclopropyl-5-(4-methylpiperazin-1-yl)phenyl)-N4-(3,4-dihydro-2H-pyrido[3,2-b][1,4]oxazin-6-yl)-5-fluoropyrimidine-2,4-diamine]",< 0.5,< 0.5,< 10,–
"CCCN1CCOc2ccc(Nc3nc(Nc4ccc(N5CC6CC5CN6C(C)=O)c(C)c4)ncc3F)nc21 (stereo not shown) [compound 37, 1-(5-(4-(5-fluoro-4-(4-propyl-3,4-dihydro-2H-pyrido[3,2-b][1,4]oxazin-6-ylamino)pyrimidin-2-ylamino)-2-methyl-phenyl)-2,5-diaza-bicyclo[2.2.1]heptan-2-yl)ethanone]",0.5 to 5,0.5 to 5,< 10,–
